Patent US20260125727A1, “METHOD FOR PRODUCING A COMPOSITION, A COMPOSITION COMPRISING AN OLIGOSACCHARIDE OBTAINED THEREBY, AND USES THEREOF” (MEIJI CO., LTD., priority 2022, published 2026)

Tests used:
[1] = Evaluation of thermal stability of aqueous solution (residual ratio of galactosylkojibiose after heat treatment, HPLC); format: physicochemical; details: for change of galactosylkojibiose HPLC peak after heat treatment: 120° C. for 20 minutes, 12 wt % solution in buffer
Protocol: Buffers having various pH values (100 mM citrate-phosphate buffer for pH 3 to 6 and 100 mM phosphate buffer for pH 6 to 8) were used to dissolve the purified and fractionated galactosylkojibiose obtained in Example 3 so that the resulting solutions should have 12° Bx (12 wt %). The solutions were subjected to a heat treatment at 60° C., 80° C., 100° C., and 120° C. for 20 minutes by using an autoclave, and then residual ratio of galactosylkojibiose was evaluated.
The residual ratio was calculated from the results obtained by using HPLC method performed under the following conditions. • Column: SUPELCO apHera™ NH2 HPLC Column • Mobile phase: 68% acetonitrile • Column temperature: 35° C. • Flow rate: 1.0 mL/min • Detection: RI

Parabacteroides bacteria = assay: Promotion of growth of Parabacteroides bacteria in the intestinal microbiota; details: studies of the inventors, no method given
Bifidobacterium bacteria = assay: Promotion of growth of Bifidobacterium bacteria in the intestinal microbiota; details: studies of the inventors, no method given

Structure (SMILES)	decay of galactosylkojibiose after heat treatment ([1]; 60° C. for 20 minutes, any pH value (pH 3 to 8))	change of galactosylkojibiose HPLC peak after heat treatment ([1]; pH 6 or lower)	change of galactosylkojibiose HPLC peak after heat treatment ([1]; pH 7 or higher, new peak at around 12.1 minutes)	growth of Parabacteroides bacteria in the intestinal microbiota (Parabacteroides bacteria)	growth of Bifidobacterium bacteria in the intestinal microbiota (Bifidobacterium bacteria)
OCC1O[C@H](OC2C(O)[C@H](O[C@@H]3OC(CO)[C@H](O)C(O)C3O)C(CO)O[C@H]2O)C(O)C(O)[C@@H]1O (stereo partly drawn) [galactosylkojibiose, α-D-glucopyranosyl-(1→2)-[β-D-galactopyranosyl-(1→4)-]D-glucopyranoside]	not observed	no significant change	decay of the chromatographic peak	promote the growth	promote the growth
OCC1O[C@H](OC2[C@H](O)OC(CO)[C@@H](O)[C@@H]2O)C(O)[C@@H](O)[C@@H]1O (stereo partly shown) [kojibiose]				promote the growth	promote the growth
